Values belong to the compound of their own block, whether it stands above or below them.
Assays:
[1] = target: T1, 5-hydroxytryptamine receptor 2B (Homo sapiens, UniProt P41595); experiment: GPCRScan assay: inhibition of 5-HT2B; design: radioligand conc. used [nm] 1.0 – 2.0, parental cells stable HEK
[2] = target: T2, Sigma intracellular receptor 2 (Homo sapiens, UniProt Q5BJF2); experiment: GPCRScan assay: inhibition of Sigma 2; design: radioligand conc. used [nm] 5.0, parental cells HEKT
[3] = target: T3, Sigma non-opioid intracellular receptor 1 (Homo sapiens, UniProt Q99720); experiment: GPCRScan assay: inhibition of Sigma 1; design: radioligand conc. used [nm] 4.0 – 5.0, parental cells HEKT
[4] = target: 5-hydroxytryptamine receptor 1A (Homo sapiens) (UniProt P08908); details: Compound concentration 10.0 uM
[5] = target: 5-hydroxytryptamine receptor 1B (Homo sapiens) (UniProt P28222); details: Compound concentration 10.0 uM
[6] = target: 5-hydroxytryptamine receptor 1D (Homo sapiens) (UniProt P28221); details: Compound concentration 10.0 uM
[7] = target: 5-hydroxytryptamine receptor 2A (Homo sapiens) (UniProt P28223); details: Compound concentration 10.0 uM
[8] = target: T1, 5-hydroxytryptamine receptor 2B; details: Compound concentration 10.0 uM
[9] = target: 5-hydroxytryptamine receptor 2C (Homo sapiens) (UniProt P28335); details: Compound concentration 10.0 uM
[10] = target: 5-hydroxytryptamine receptor 3A (Homo sapiens) (UniProt P46098); details: Compound concentration 10.0 uM
[11] = target: 5-hydroxytryptamine receptor 5A (Homo sapiens) (UniProt P47898); details: Compound concentration 10.0 uM
[12] = target: T4, 5-hydroxytryptamine receptor 6 (Homo sapiens, UniProt P50406); details: Compound concentration 10.0 uM
[13] = target: 5-hydroxytryptamine receptor 7 (Homo sapiens) (UniProt P34969); details: Compound concentration 10.0 uM
[14] = target: D(2) dopamine receptor (Homo sapiens) (UniProt P14416); details: Compound concentration 10.0 uM
[15] = target: D(3) dopamine receptor (Homo sapiens) (UniProt P35462); details: Compound concentration 10.0 uM
[16] = target: D(4) dopamine receptor (Homo sapiens) (UniProt P21917); details: Compound concentration 10.0 uM
[17] = target: D(1B) dopamine receptor (Homo sapiens) (UniProt P21918); details: Compound concentration 10.0 uM
[18] = target: Sodium-dependent serotonin transporter (Homo sapiens) (UniProt P31645); details: Compound concentration 10.0 uM
[19] = target: Sodium-dependent noradrenaline transporter (Homo sapiens) (UniProt P23975); details: Compound concentration 10.0 uM
[20] = target: Sodium-dependent dopamine transporter (Homo sapiens) (UniProt Q01959); details: Compound concentration 10.0 uM
[21] = target: Mu-type opioid receptor (Homo sapiens) (UniProt P35372); details: Compound concentration 10.0 uM
[22] = target: Delta-type opioid receptor (Homo sapiens) (UniProt P41143); details: Compound concentration 10.0 uM
[23] = target: Kappa-type opioid receptor (Homo sapiens) (UniProt P41145); details: Compound concentration 10.0 uM
[24] = target: Histamine H1 receptor (Homo sapiens) (UniProt P35367); details: Compound concentration 10.0 uM
[25] = target: Histamine H2 receptor (Homo sapiens) (UniProt P25021); details: Compound concentration 10.0 uM
[26] = target: Histamine H3 receptor (Homo sapiens) (UniProt Q9Y5N1); details: Compound concentration 10.0 uM
[27] = target: Histamine H4 receptor (Homo sapiens) (UniProt Q9H3N8); details: Compound concentration 10.0 uM
[28] = target: Alpha-1A adrenergic receptor (Homo sapiens) (UniProt P35348); details: Compound concentration 10.0 uM
[29] = target: Alpha-1B adrenergic receptor (Homo sapiens) (UniProt P35368); details: Compound concentration 10.0 uM
[30] = target: Alpha-2A adrenergic receptor (Homo sapiens) (UniProt P08913); details: Compound concentration 10.0 uM
[31] = target: Alpha-2B adrenergic receptor (Homo sapiens) (UniProt P18089); details: Compound concentration 10.0 uM
[32] = target: Alpha-2C adrenergic receptor (Homo sapiens) (UniProt P18825); details: Compound concentration 10.0 uM
[33] = target: Beta-1 adrenergic receptor (Homo sapiens) (UniProt P08588); details: Compound concentration 10.0 uM
[34] = target: Beta-2 adrenergic receptor (Homo sapiens) (UniProt P07550); details: Compound concentration 10.0 uM
[35] = target: Muscarinic acetylcholine receptor M1 (Homo sapiens) (UniProt P11229); details: Compound concentration 10.0 uM
[36] = target: Muscarinic acetylcholine receptor M2 (Homo sapiens) (UniProt P08172); details: Compound concentration 10.0 uM
[37] = target: Muscarinic acetylcholine receptor M3 (Homo sapiens) (UniProt P20309); details: Compound concentration 10.0 uM
[38] = target: Muscarinic acetylcholine receptor M4 (Homo sapiens) (UniProt P08173); details: Compound concentration 10.0 uM
[39] = target: Muscarinic acetylcholine receptor M5 (Homo sapiens) (UniProt P08912); details: Compound concentration 10.0 uM
[40] = target: Beta-3 adrenergic receptor (Homo sapiens) (UniProt P13945); details: Compound concentration 10.0 uM
[41] = target: T5, GABA-A receptor; anion channel (Rattus norvegicus) (UniProt O09028+P15431+P18506+P18508+P19969+P20236+P23574+P23576+P28471+P28473+P30191+P62813+P63079+P63138+Q91ZM7+Q9ES14); details: Compound concentration 10.0 uM
[42] = organism: Rattus norvegicus; details: Compound concentration 10.0 uM
[43] = target: Alpha-1D adrenergic receptor (Homo sapiens) (UniProt P25100); details: Compound concentration 10.0 uM
[44] = target: T2, Sigma intracellular receptor 2; details: Compound concentration 10.0 uM
[45] = target: T3, Sigma non-opioid intracellular receptor 1; details: Compound concentration 10.0 uM
[46] = target: 5-hydroxytryptamine receptor 3A (Homo sapiens, UniProt P46098); experiment: GPCRScan assay: inhibition of 5-HT3; design: radioligand conc. used [nm] 1.0 – 2.0, parental cells HEKT
[47] = target: T4, 5-hydroxytryptamine receptor 6; experiment: GPCRScan assay: inhibition of 5-HT6; design: radioligand conc. used [nm] 2.0 – 4.0, parental cells stable HEK
[48] = target: Alpha-2C adrenergic receptor (Homo sapiens, UniProt P18825); experiment: GPCRScan assay: inhibition of Alpha2C; design: radioligand conc. used [nm] 0.5 – 1.0, parental cells stable MDCK
[49] = target: Muscarinic acetylcholine receptor M2 (Homo sapiens, UniProt P08172); experiment: GPCRScan assay: inhibition of M2; design: radioligand conc. used [nm] 0.2 – 1.0, parental cells stable CHO
[50] = BXF135 2 cell line Proliferation assay; assay type: functional, Homo sapiens; details: Cell line Patient derived
[51] = system: MKN-1; experiment: MKN1 cell line Proliferation assay; assay type: functional, Homo sapiens
[52] = BXF121 8 cell line Proliferation assay; assay type: functional, Homo sapiens; details: Cell line Patient derived
[53] = system: LS174T; experiment: LS174T cell line Proliferation assay; assay type: functional, Homo sapiens
[54] = GXF25 1 cell line Proliferation assay; assay type: functional, Homo sapiens; details: Cell line Patient derived
[55] = LXFA62 9 cell line Proliferation assay; assay type: functional, Homo sapiens, LXF 629L; details: Cell line Patient derived
[56] = system: BG-1 cell line; experiment: BG1 cell line Proliferation assay; assay type: functional, Homo sapiens
[57] = system: Caco-2; experiment: Caco-2 cell line Proliferation assay; assay type: functional, Homo sapiens
[58] = system: SK-MEL-28; experiment: SK- MEL-28 cell line Proliferation assay; assay type: functional, Homo sapiens
[59] = system: RKO; experiment: RKO cell line Proliferation assay; assay type: functional, Homo sapiens
[60] = system: LOX IMVI; experiment: LOX cell line Proliferation assay; assay type: functional, Homo sapiens
[61] = target: 5-hydroxytryptamine receptor 1E (Homo sapiens) (UniProt P28566); details: Compound concentration 10.0 uM
[62] = target: D(1A) dopamine receptor (Homo sapiens) (UniProt P21728); details: Compound concentration 10.0 uM
[63] = target: T5, GABA-A receptor; anion channel (Rattus norvegicus); details: Compound concentration 10.0 uM; remark: listed apart in the source

T3 sequence (Q99720 whole entry): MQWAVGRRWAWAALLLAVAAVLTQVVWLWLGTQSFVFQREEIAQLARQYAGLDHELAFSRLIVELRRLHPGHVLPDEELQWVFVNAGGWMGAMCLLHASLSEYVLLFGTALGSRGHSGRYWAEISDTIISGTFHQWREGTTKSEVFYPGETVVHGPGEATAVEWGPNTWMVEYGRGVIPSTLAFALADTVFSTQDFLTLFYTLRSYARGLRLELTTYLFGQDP
T2 sequence (Q5BJF2 whole entry): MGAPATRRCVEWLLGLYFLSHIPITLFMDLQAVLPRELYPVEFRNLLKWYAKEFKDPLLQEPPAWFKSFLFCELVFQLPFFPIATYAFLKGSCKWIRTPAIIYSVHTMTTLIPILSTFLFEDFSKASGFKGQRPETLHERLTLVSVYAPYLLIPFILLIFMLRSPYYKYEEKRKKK
T4 sequence (P50406 whole entry): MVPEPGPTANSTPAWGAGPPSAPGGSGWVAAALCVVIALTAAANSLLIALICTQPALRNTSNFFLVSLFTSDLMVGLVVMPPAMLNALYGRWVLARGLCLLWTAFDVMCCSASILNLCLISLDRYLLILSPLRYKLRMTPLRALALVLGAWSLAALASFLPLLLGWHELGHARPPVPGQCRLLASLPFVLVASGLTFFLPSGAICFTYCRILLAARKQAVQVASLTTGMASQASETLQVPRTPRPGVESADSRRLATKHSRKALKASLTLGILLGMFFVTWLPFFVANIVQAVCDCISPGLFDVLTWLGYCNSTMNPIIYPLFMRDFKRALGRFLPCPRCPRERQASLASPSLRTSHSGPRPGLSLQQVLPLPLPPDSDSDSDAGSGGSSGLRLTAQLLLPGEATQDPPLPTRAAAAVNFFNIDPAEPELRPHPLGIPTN
T1 sequence (P41595 whole entry): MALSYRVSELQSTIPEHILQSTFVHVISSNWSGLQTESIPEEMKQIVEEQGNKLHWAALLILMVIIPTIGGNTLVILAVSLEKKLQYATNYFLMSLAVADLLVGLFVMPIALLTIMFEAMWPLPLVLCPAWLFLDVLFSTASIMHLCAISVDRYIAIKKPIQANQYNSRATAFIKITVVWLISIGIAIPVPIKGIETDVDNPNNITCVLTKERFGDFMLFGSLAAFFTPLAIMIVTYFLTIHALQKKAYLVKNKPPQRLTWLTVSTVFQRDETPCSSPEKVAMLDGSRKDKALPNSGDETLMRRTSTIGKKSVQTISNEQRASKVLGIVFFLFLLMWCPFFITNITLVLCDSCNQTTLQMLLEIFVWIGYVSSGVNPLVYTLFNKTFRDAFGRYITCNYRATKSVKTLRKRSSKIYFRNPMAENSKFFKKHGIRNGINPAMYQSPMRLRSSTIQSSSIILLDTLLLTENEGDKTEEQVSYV
Beta-3 adrenergic receptor (Homo sapiens), sequence (P13945 whole entry, looked up): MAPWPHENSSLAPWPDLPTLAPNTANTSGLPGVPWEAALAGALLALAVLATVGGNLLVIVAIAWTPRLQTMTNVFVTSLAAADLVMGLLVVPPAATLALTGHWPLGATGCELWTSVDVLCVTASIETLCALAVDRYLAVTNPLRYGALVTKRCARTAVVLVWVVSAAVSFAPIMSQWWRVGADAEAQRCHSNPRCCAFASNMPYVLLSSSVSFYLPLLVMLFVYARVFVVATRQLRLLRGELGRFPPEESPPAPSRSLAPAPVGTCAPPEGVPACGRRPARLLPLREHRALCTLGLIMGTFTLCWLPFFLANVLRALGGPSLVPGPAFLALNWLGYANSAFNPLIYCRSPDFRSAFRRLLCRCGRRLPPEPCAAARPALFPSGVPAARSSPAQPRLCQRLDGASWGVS
Alpha-2B adrenergic receptor (Homo sapiens), sequence (P18089 whole entry): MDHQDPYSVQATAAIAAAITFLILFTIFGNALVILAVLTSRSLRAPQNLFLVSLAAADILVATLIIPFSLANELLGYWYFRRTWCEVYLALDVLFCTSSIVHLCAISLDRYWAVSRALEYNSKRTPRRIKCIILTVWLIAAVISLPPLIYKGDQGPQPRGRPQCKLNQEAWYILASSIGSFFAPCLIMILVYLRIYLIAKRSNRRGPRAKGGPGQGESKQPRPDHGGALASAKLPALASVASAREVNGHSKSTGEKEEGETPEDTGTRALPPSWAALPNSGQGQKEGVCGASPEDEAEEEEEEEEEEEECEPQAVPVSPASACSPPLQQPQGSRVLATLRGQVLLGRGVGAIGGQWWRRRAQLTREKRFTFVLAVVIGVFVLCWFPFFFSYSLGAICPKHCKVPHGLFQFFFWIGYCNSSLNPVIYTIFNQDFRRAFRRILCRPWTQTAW
5-hydroxytryptamine receptor 7 (Homo sapiens), sequence (P34969 whole entry): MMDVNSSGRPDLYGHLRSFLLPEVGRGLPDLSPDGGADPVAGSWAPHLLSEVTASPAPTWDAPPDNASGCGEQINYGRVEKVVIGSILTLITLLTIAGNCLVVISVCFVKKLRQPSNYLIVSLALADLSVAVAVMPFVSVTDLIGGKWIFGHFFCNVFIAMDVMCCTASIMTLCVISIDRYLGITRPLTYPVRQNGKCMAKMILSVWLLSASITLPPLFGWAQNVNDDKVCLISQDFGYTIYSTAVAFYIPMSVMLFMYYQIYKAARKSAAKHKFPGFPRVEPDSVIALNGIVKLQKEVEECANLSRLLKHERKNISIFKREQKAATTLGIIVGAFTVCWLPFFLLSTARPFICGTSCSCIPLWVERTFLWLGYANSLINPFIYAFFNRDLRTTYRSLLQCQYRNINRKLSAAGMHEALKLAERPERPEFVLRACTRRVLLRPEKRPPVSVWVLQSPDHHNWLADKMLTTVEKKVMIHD
5-hydroxytryptamine receptor 1D (Homo sapiens), sequence (P28221 whole entry): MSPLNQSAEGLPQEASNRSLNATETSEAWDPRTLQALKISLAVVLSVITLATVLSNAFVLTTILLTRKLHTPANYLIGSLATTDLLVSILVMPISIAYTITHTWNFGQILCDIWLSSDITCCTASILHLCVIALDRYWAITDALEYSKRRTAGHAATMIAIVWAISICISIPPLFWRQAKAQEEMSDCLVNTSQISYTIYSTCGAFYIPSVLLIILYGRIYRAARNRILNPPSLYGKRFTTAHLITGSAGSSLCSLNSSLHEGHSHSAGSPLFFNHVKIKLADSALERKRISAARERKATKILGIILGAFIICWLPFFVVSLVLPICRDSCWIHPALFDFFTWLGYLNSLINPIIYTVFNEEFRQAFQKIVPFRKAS
5-hydroxytryptamine receptor 2C (Homo sapiens), sequence (P28335 whole entry): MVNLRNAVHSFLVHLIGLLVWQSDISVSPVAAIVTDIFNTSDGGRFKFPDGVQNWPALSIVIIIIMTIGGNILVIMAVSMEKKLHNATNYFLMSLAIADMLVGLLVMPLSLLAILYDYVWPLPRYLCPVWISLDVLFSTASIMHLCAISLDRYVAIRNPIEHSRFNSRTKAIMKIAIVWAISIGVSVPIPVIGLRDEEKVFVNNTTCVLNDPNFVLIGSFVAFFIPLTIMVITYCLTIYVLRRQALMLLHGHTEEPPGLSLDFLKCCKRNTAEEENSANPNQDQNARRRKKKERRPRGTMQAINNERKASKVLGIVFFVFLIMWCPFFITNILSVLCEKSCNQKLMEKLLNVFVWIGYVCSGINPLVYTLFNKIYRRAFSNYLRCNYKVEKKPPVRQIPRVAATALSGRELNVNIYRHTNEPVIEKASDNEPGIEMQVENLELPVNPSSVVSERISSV
Alpha-2A adrenergic receptor (Homo sapiens), sequence (P08913 whole entry): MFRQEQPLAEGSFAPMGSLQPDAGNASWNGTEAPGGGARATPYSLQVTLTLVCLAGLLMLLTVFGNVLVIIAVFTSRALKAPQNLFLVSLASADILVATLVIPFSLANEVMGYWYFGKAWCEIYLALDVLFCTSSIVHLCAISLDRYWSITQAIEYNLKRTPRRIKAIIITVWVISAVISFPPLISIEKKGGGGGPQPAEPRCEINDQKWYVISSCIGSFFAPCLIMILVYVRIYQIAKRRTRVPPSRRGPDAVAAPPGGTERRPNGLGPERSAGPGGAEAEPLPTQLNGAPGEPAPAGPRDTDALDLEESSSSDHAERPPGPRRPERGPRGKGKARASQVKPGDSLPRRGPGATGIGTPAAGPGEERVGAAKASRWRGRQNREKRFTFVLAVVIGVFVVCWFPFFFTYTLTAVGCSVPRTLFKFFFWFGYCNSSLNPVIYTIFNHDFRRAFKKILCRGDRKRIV
Alpha-2C adrenergic receptor (Homo sapiens), sequence (P18825 whole entry): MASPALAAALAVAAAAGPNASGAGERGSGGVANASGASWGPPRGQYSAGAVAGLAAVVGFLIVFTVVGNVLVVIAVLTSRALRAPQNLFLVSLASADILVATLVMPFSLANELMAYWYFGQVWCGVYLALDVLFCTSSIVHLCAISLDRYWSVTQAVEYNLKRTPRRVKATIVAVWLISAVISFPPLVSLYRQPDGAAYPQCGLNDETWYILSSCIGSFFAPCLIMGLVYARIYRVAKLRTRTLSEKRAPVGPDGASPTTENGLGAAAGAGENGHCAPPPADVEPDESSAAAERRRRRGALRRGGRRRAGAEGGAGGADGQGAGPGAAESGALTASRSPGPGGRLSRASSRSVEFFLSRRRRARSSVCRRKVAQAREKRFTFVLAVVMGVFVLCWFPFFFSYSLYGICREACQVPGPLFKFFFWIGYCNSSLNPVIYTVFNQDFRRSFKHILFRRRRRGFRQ
Histamine H1 receptor (Homo sapiens), sequence (P35367 whole entry): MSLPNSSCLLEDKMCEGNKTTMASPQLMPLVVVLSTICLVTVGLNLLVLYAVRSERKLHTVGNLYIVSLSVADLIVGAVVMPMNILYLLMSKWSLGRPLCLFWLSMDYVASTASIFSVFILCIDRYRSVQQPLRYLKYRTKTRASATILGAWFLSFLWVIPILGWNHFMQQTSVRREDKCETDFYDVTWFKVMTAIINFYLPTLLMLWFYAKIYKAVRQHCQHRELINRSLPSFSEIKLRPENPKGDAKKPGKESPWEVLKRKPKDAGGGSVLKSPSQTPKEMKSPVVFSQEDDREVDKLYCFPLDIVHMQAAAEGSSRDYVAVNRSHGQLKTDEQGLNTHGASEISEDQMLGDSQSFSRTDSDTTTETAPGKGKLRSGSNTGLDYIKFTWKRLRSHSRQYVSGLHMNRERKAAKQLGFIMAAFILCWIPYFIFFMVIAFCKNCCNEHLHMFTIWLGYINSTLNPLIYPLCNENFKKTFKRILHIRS

- Ki ([1]; read-out: Ki): 1580 nM
- Ki ([1]; read-out: pKi (converted)): 1510 nM
- Ki ([2]; read-out: Ki): 152 nM
- Ki [3]: 1290 nM
- inhibition [4]: 10.2%
- inhibition [5]: 4.71%
- inhibition [6]: -0.96%
- inhibition [7]: -4.2%
- inhibition [8]: 72%
- inhibition [9]: 8.59%
- inhibition [10]: 45.1%
- inhibition [11]: 16.2%
- inhibition [12]: 31.4%
- inhibition [13]: 10.1%
- inhibition [14]: 44.6%
- inhibition [15]: 47.6%
- inhibition [16]: 44%
- inhibition [17]: 5.35%
- inhibition [18]: 7.08%
- inhibition [19]: -3.53%
- inhibition [20]: -1.09%
- inhibition [21]: 9.54%
- inhibition [22]: 3.76%
- inhibition [23]: 18.1%
- inhibition [24]: 0.44%
- inhibition [25]: 1.91%
- inhibition [26]: -7.57%
- inhibition [27]: -9.17%
- inhibition [28]: 6.33%
- inhibition [29]: 7.64%
- inhibition [30]: 27.1%
- inhibition [31]: 22%
- inhibition [32]: 19.9%
- inhibition [33]: 19.9%
- inhibition [34]: 23%
- inhibition [35]: 43.4%
- inhibition [36]: 10.1%
- inhibition [37]: 16.1%
- inhibition [38]: 14.7%
- inhibition [39]: 13.5%
- inhibition [40]: 19.5%
- inhibition [41]: -6.05%
- inhibition [42]: 13.7%
- inhibition [43]: 14.4%
- inhibition [44]: 98%
- inhibition [45]: 80%
Structure (SMILES): Cn1c(-c2csc(C3CCN(CC4=NC5N=CC=CC5N4)CC3)n2)nc2ccccc21 (configuration not stated) [BAY-070]

- Ki ([1]; read-out: Ki): 558 nM
- Ki ([1]; read-out: pKi (converted)): 550 nM
- Ki ([46]; read-out: Ki): 5460 nM
- Ki ([46]; read-out: pKi (converted)): 5370 nM
- Ki [47]: 5240 nM
- Ki [48]: 3500 nM
- Ki ([49]; read-out: Ki): 5470 nM
- Ki ([49]; read-out: pKi (converted)): 4420 nM
- Ki ([2]; read-out: Ki): 1120 nM
- Ki ([2]; read-out: pKi (converted)): 1100 nM
- Ki [3]: 1180 nM
- Cell Proliferation EC50 [51]: 34 nM
- Cell Proliferation EC50 [57]: 129 nM
- Cell Proliferation EC50 [58]: 75 nM
- inhibition [4]: 16.4%
- inhibition [5]: 16%
- inhibition [6]: 16.9%
- inhibition [61]: 30.9%
- inhibition [7]: 5.87%
- inhibition [8]: 74.5%
- inhibition [9]: 20.2%
- inhibition [10]: 72.1%
- inhibition [11]: 19.9%
- inhibition [12]: 72.4%
- inhibition [13]: 40.9%
- inhibition [62]: -2.56%
- inhibition [14]: 5.5%
- inhibition [15]: 28.6%
- inhibition [16]: 16.5%
- inhibition [17]: 5.5%
- inhibition [18]: 40.3%
- inhibition [21]: 22.4%
- inhibition [22]: 22%
- inhibition [23]: 21.6%
- inhibition [63]: 7.9%
- inhibition [24]: 37.4%
- inhibition [25]: 14.8%
- inhibition [26]: -4.94%
- inhibition [27]: 2.33%
- inhibition [28]: 15.5%
- inhibition [29]: 35.7%
- inhibition [30]: 32.1%
- inhibition [31]: 28.7%
- inhibition [32]: 53.4%
- inhibition [33]: 20.9%
- inhibition [34]: 25.4%
- inhibition [35]: 1.7%
- inhibition [36]: 54.2%
- inhibition [37]: -0.2%
- inhibition [38]: -4.61%
- inhibition [39]: -7.72%
- inhibition [40]: 11.7%
- inhibition [41]: 48.3%
- inhibition [42]: 20.2%
- inhibition [43]: 9.84%
- inhibition [44]: 78.1%
- inhibition [45]: 55.4%
Structure (SMILES): c1ccc2oc(-c3csc(C4CCN(Cc5nc6ncccc6[nH]5)CC4)n3)cc2c1
- Cell Proliferation EC50 [50]: 23 nM
- Cell Proliferation EC70 [50]: 48 nM
- Cell Proliferation EC70 [51]: 85 nM
- Cell Proliferation EC50 [52]: 65 nM
- Cell Proliferation EC70 [52]: 104 nM
- Cell Proliferation EC50 [53]: 43 nM
- Cell Proliferation EC70 [53]: 109 nM
- Cell Proliferation EC50 [54]: 81 nM
- Cell Proliferation EC70 [54]: 147 nM
- Cell Proliferation EC50 [55]: 66 nM
- Cell Proliferation EC70 [55]: 195 nM
- Cell Proliferation EC50 [56]: 142 nM
- Cell Proliferation EC70 [56]: 207 nM
- Cell Proliferation EC70 [57]: 209 nM
- Cell Proliferation EC70 [58]: 215 nM
- Cell Proliferation EC50 [59]: 153 nM
- Cell Proliferation EC70 [59]: 251 nM
- Cell Proliferation EC50 [60]: 126 nM
- Cell Proliferation EC70 [60]: 335 nM
